Legend:
[1] = test system: voltage operated calcium channels; test: Depolarization (potassium) induced 45Ca uptake into synaptosomes; assay type: biochemical, male Wistar rat; settings: concentration inhibiting 50% of potassium stimulated uptake of 45Ca; rat cerebral cortex synaptosomes; corrected for basal uptake in non-depolarized samples
Protocol: A crude synaptosome preparation contains small vesicles surrounded by neuronal membranes, and it is possible to study an opening of the voltage operated calcium channels in such a preparation.
In the below described test influx of ^45Ca into synaptosomes is studied under depolarized conditions. The effect of test substances on the depolarization induced calcium uptake can thus be studied.
The cerebral cortex from a male Wistar rat is homogenized in 20 ml ice cold 0.32M saccharose. In the following steps the temperature is kept at 0°C to 4°C. The homogenate is centrifuged at 1,000 x g for 10 minutes and the supernatant recentrifuged for 20 minutes at 18,000 x g. The obtained pellet is resuspended in 0.32M saccharose (10 ml per g of original tissue).
Aliquots of 0.05 ml of the hereby obtained synaptosome suspension are added to glass tubes containing 0.625 ml of a NaCl buffer (136 mM Nacl, 4 Mm KCl, 0.35 mM CaCl2, 1.2 mM MgCl2, 20 mM Tris HCl, 12 mM glucose, pH 7.4) as well as 0.025 ml of different test substances in 48% ethanol. These tubes are pre-incubated for 30 minutes on ice and thereafter for 6 minutes at 37°C.
^45Ca uptake is initiated by addition to above glass-tubes of 0.4 ml ^45CaCl2 (specific activity: 29-39 Ci/g; […] per tube). For depolarized samples the 0.4 ml ^45CaCl2 contain KCl (145 mM) and for non-depolarized NaCl (145 mM). The samples are incubated for 15 seconds.
The ^45Ca uptake is stopped by filtering through glass fibre filters, which are subsequently washed 3 times with an ice cold solution of 145 mM KCl, 7 mM EGTA and 20 mM Tris HCl, pH 7.4 (5.0 ml). The radioactivity on the filters are measured by liquid scintillation spectrometry. Experiments are performed in duplicate.
Above test substances are dissolved in for example 10 ml 48% ethanol at a concentration of 0.44 mg/ml. Dilutions are made in ethanol. Test substances are tested at concentrations of 0.1, 0.3, 1, 3, 10 .... µg/ml.
The test value is given as IC50, that is the concentration in µM of the test substances, which inhibit 50% of the potassium stimulated uptake of ^45Ca. […]

[2] = test system: hypermotility in mice; test: Hypermotility in mice induced by amphetamine or cocaine; assay type: in vivo; settings: result in words
Source text: This is in full accordance with the influence of N-type calcium channel blockers on transmitter release in the central nervous system. Therefore the compounds of the invention are useful as anti-psychotics.

Row | SMILES | IC50 [1] | antagonism of hypermotility [2]
1 | COc1ccc(OC)c(-n2c(N)nc3cc(C(F)(F)F)ccc32)c1 [1-(2,5-dimethoxyphenyl)-2-amino-5-trifluoromethyl-benzimidazole] | 700 nM | 
2 | Nc1nc2cc(F)ccc2n1-c1cccc(N2CCCC2)c1 [1-(5-(1-pyrrolidinyl)-phenyl)-2-amino-5-fluoro-benzimidazole] | 2000 nM | 
3 | Nc1nc2ccccc2n1-c1cc(-c2ccccc2)ccc1O [1-(2-hydroxy-5-phenyl-phenyl)-2-aminobenzimidazole] |  | potently antagonize
4 | Nc1nc2cc(C(F)(F)F)ccc2n1-c1cc(Cl)ccc1O [1-(2-hydroxy-5-chlorophenyl)-5-trifluoromethyl-2-amino-benzimidazole] | 2000 nM | 

Source: patent EP0520200B1, “Imidazole compounds, their preparation and use” (NEUROSEARCH A/S, priority 1991, dated 1992)
